The results in this text go back to patent publication US12410171B2, “Tropomyosin receptor kinase (TRK) degradation compounds and methods of use” (Cullgen (Shanghai), Inc., priority 2020, dated 2025).

As usually defined, the IC50 is the concentration needed to halve the response being measured.

One test deals with KM12 cells. Nature of the test: KM12 cell viability (CellTiter-Glo). In kind it is cell-based. The note with it: Homo sapiens. The procedure, abridged:
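KM12 cells seeded at 5000 per well in RPMI 1640 + 10% FBS and exposed 3 days to serial dilutions (11-point 3-fold, 8-point 3-fold from 1000 nM, or 12-point 2-fold). Viability by CellTiter-Glo; IC50 from least-squares nonlinear regression.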
For orientation: In ATP-based viability assays light output follows the ATP content of the culture.

In a further test the target is T1, TPM3-TRKA fusion protein (Homo sapiens, UniProt P04629).
T1 construct: The resulted chimeric proteins always retain the kinase domain of TRK proteins; TPM3 (fusion partner, N-terminal part of tropomyosin alpha-3, P06753); endogenous in cells; host or cells: KM12 colon cancer cells; the other entry of the earlier key: TPM3 (P06753, Tropomyosin alpha-3 chain)
The experiment in a line: TPM3-TRKA fusion protein levels in KM12 cells (Western blot). Format: cell-based. The note with it: read-out: Degradation (at 10 nM). A digest of the protocol:
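KM12 colon cancer cells were treated with DMSO or compounds at 0.1–100 nM, 0.4–30 nM or other stated concentrations for 4, 8–16 or 16 h. RIPA lysates were BCA-normalized and resolved by SDS-PAGE. TPM3-TRKA was detected by chemiluminescent Western blot, with bands quantified by densitometry.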

Setting [1] is: 72 h, KM12 cell viability, CellTiter-Glo, three days treatment, read-out: IC50.
Where [2] appears, read: 16 h, TPM3-TRKA degradation in KM12 cells at 10 nM compound, category of percentage degradation.

Like-named read-outs stand apart in the source and are kept apart here.

T1 sequence (P04629 with tags, fused parts or gaps): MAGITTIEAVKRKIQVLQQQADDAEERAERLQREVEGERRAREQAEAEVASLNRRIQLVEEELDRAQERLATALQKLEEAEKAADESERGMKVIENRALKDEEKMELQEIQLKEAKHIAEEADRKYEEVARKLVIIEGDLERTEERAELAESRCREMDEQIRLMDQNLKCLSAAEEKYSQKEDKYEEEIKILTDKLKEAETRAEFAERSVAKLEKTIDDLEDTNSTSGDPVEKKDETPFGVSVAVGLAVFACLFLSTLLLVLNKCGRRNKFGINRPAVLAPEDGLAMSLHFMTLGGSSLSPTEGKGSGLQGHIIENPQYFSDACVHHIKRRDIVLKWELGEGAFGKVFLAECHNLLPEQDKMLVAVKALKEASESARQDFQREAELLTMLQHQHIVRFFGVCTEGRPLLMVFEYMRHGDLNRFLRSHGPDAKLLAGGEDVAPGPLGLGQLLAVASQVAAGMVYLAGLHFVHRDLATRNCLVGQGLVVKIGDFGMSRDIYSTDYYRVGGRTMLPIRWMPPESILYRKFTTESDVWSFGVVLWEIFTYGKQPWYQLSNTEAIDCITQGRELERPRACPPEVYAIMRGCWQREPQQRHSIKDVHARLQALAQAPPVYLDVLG

On to `Cn1c(=O)n(C2CCC(=O)NC2=O)c2ccc(N3CC(CN4CCN(c5cccc(-c6cnc7ccc(N8CCC[C@@H]8c8cccc(F)c8)nn67)n5)CC4)C3)cc21` (stereo partly drawn) [TR-250, 3-(5-(3-((4-(6-(6-((R)-2-(3-fluorophenyl)pyrrolidin-1-yl)imidazo[1,2-b]pyridazin-3-yl)pyridin-2-yl)piperazin-1-yl)methyl)azetidin-1-yl)-3-methyl-2-oxo-2,3-dihydro-1H-benzo[d]imidazol-1-yl)piperidine-2,6-dione], for which the IC50 in the test with KM12 cells (setting [1]) is 16.1 nM. In addition, the percent degradation of TPM3-TRKA protein at 0.01 µM at TPM3-TRKA fusion protein (setting [2]) is greater than 80%.
On the same counts, the results for `O=C1CCC(N2C(=O)c3ccc(CN4CC(CN5CCN(c6ccc(C(=O)Nc7n[nH]c8ccc(Cc9cc(F)cc(F)c9)cc78)c(NCCF)c6)CC5)C4)cc3C2=O)C(=O)N1` (stereo not drawn) [TR-251] are 46.5 nM and greater than 80%.
Take `O=C1CCC(N2C(=O)c3ccc(CN4CC(N5CCN(c6ccc(C(=O)Nc7n[nH]c8ccc(Cc9cc(F)cc(F)c9)cc78)c(NCCF)c6)CC5)C4)cc3C2=O)C(=O)N1` (stereo not drawn) [TR-252, N—(S-(3,5-Difluorobenzyl)-1H-indazol-3-yl)-4-(4-(1-((2-(2,6-dioxopiperidin-3-yl)-1,3-dioxoisoindolin-5-yl)methyl)azetidin-3-yl)piperazin-1-yl)-2-((2-fluoroethyl)amino)benzamide]: the IC50 with KM12 cells (KM12, 72 h) worked out at 47.6 nM. Moreover, the percent degradation of TPM3-TRKA protein at 0.01 µM on TPM3-TRKA fusion protein (KM12, 16 h) was greater than 80%.
In the case of `O=C1CCC(N2Cc3cc(C#CCN4CCN(c5ccc(C(=O)Nc6n[nH]c7ccc(Cc8cc(F)cc(F)c8)cc67)c(NC6CCOCC6)c5)CC4)ccc3C2=O)C(=O)N1` (stereo not drawn) [TR-253, N-(5-(3,5-Difluorobenzyl)-1H-indazol-3-yl)-4-(4-(3-(2-(2,6-dioxopiperidin-3-yl)-1-oxoisoindolin-5-yl)prop-2-yn-1-yl)piperazin-1-yl)-2-((tetrahydro-2H-pyran-4-yl)amino)benzamide], the half-inhibitory concentration (IC50) in the test with KM12 cells (setting [1]) worked out at 6.9 nM. The percent degradation of TPM3-TRKA protein at 0.01 µM on TPM3-TRKA fusion protein (setting [2]) was greater than 80%.
In the test on KM12 cells (KM12, 72 h), `O=C1CCC(N2C(=O)c3ccc(CN4CC(N5CCN(c6ccc(C(=O)Nc7n[nH]c8ccc(Cc9cc(F)cc(F)c9)cc78)c(NC7CCOCC7)c6)CC5)C4)cc3C2=O)C(=O)N1` (stereo not drawn) [TR-254, N-(5-(3,5-difluorobenzyl)-1H-indazol-3-yl)-4-(4-(1-((2-(2,6-dioxopiperidin-3-yl)-1,3-dioxoisoindolin-5-yl)methyl)azetidin-3-yl)piperazin-1-yl)-2-((tetrahydro-2H-pyran-4-yl)amino)benzamide] had an IC50 of 20.3 nM. For the same compound, the percent degradation of TPM3-TRKA protein at 0.01 µM on TPM3-TRKA fusion protein (KM12, 16 h) is greater than 80%.
As for `O=C1CCC(N2Cc3cc(C#CCN4CCN(c5ccc(C(=O)Nc6n[nH]c7ccc(Cc8cc(F)cc(F)c8)cc67)c(NCCF)c5)CC4)ccc3C2=O)C(=O)N1` (stereo not drawn) [TR-255, N—(S-(3,5-Difluorobenzyl)-1H-indazol-3-yl)-4-(4-(3-(2-(2,6-dioxopiperidin-3-yl)-1-oxoisoindolin-5-yl)prop-2-yn-1-yl)piperazin-1-yl)-2-((2-fluoroethyl)amino)benzamide], in the test with KM12 cells (setting [1]), the half-inhibitory concentration (IC50) came out at 14.4 nM. For the same compound, the percent degradation of TPM3-TRKA protein at 0.01 µM at TPM3-TRKA fusion protein (setting [2]) was greater than 80%.
With `O=C1CCC(N2Cc3cc(C#CCN4CCN(c5ccc(C(=O)Nc6n[nH]c7ccc(Cc8cc(F)cc(F)c8)cc67)cc5)CC4)ccc3C2=O)C(=O)N1` (stereo not drawn) [TR-256, N—(S-(3,5-Difluorobenzyl)-1H-indazol-3-yl)-4-(4-(3-(2-(2,6-dioxopiperidin-3-yl)-1-oxoisoindolin-5-yl)prop-2-yn-1-yl)piperazin-1˜yl)benzamide], the IC50 with KM12 cells (setting [1]) was found to be 46.9 nM. Further, at TPM3-TRKA fusion protein (setting [2]), the percent degradation of TPM3-TRKA protein at 0.01 µM was in the range of 50 to 80%.
On the same counts, the results for `Cn1c(=O)n(C2CCC(=O)NC2=O)c2cccc(N3CC(CN4CCN(c5cccc(-c6cnc7ccc(N8CCC[C@@H]8c8cccc(F)c8)nn67)n5)CC4)C3)c21` (stereo partly drawn) [TR-258, 3-(4-(3-((4-(6-(6-((R)-2-(3-fluorophenyl)pyrrolidin-1-yl)imidazo[1,2-b]pyridazin-3-yl)pyridin-2-yl)piperazin-1-yl)methyl)azetidin-1-yl)-3-methyl-2-oxo-2,3-dihydro-1H-benzo[d]imidazol-1-yl)piperidine-2,6-dione] are 10.4 nM and greater than 80%.
As for `Cn1c(=O)n(C2CCC(=O)NC2=O)c2ccc(CCCCN3CCN(c4cccc(-c5cnc6ccc(N7CCC[C@@H]7c7cccc(F)c7)nn56)n4)CC3)cc21` (stereo partly drawn) [TR-259, 3-(5-(4-(4-(6-(6-((R)-2-(3-fluorophenyl)pyrrolidin-1-yl)imidazo[1,2-b]pyridazin-3-yl)pyridin-2-yl)piperazin-1-yl)butyl)-3-methyl-2-oxo-2,3-dihydro-1H-benzo[d]imidazol-1-yl)piperidine-2,6-dione], in the test with KM12 cells (setting [1]), the IC50 was determined as 5.3 nM. Moreover, the percent degradation of TPM3-TRKA protein at 0.01 µM at TPM3-TRKA fusion protein (setting [2]) is greater than 80%.
On the same counts, the results for `Cn1c(=O)n(C2CCC(=O)NC2=O)c2ccc(C#CCCN3CCN(c4cccc(-c5cnc6ccc(N7CCC[C@@H]7c7cccc(F)c7)nn56)n4)CC3)cc21` (stereo partly drawn) [TR-260, 3-(5-(4-(4-(6-(6-((R)-2-(3-fluorophenyl)pyrrolidin-1-yl)imidazo[1,2-b]pyridazin-3-yl)pyridin-2-yl)piperazin-1-yl)but-1-yn-1-yl)-3-methyl-2-oxo-2,3-dihydro-1H-benzo[d]imidazol-1-yl)piperidine-2,6-dione] are 26.4 nM and greater than 80%.
`O=C1CCC(N2C(=O)c3ccc(CN4CC(N5CCN(c6ccc(C(=O)Nc7n[nH]c8ccc(Cc9cc(F)cc(F)c9)cc78)cc6)CC5)C4)cc3C2=O)C(=O)N1` (stereo not drawn) [TR-261, N-(5-(3,5-Difluorobenzyl)-1H-indazol-3-yl)-4-(4-(1-((2-(2,6-dioxopiperidin-3-yl)-1,3-dioxoisoindolin-S-yl)methyl)azetidin-3-yl)piperazin-1-yl)benzamide] returned an IC50 with KM12 cells (KM12, 72 h) of 366 nM. For the same compound, the percent degradation of TPM3-TRKA protein at 0.01 µM at TPM3-TRKA fusion protein (KM12, 16 h) is 50 to 80%.
`O=C1CCC(N2C(=O)c3ccc(CN4CC(CN5CCN(c6ccc(C(=O)Nc7n[nH]c8ccc(Cc9cc(F)cc(F)c9)cc78)cc6)CC5)C4)cc3C2=O)C(=O)N1` (stereo not drawn) [TR-262, N-(5-(3,5-Difluorobenzyl)-1H-indazol-3-yl)-4-(4-((1-((2-(2,6-dioxopiperidin-3-yl)-1,3-dioxoisoindolin-5-yl)methyl)azetidin-3-yl)methyl)piperazin-1-yl)benzamide]: the half-inhibitory concentration (IC50) in the test with KM12 cells (setting [1]) came to 81 nM. In addition, the percent degradation of TPM3-TRKA protein at 0.01 µM at TPM3-TRKA fusion protein (setting [2]) is greater than 80%.
On the same counts, the results for `O=C1CCC(N2C(=O)c3ccc(NCCN4CCN(c5ccc(C(=O)Nc6n[nH]c7ccc(Cc8cc(F)cc(F)c8)cc67)cc5)CC4)cc3C2=O)C(=O)N1` (stereo not drawn) [TR-263, N-(5-(3,5-difluorobenzyl)-1H-indazol-3-yl)-4-(4-(2-((2-(2,6-dioxopiperidin-3-yl)-1,3-dioxoisoindolin-5-yl)amino)ethyl)piperazin-1-yl)benzamide] are 19.2 nM and 50 to 80%.
On the same counts, the results for `O=C1CCC(N2C(=O)c3ccc(NCC(=O)N4CCN(c5ccc(C(=O)Nc6n[nH]c7ccc(Cc8cc(F)cc(F)c8)cc67)cc5)CC4)cc3C2=O)C(=O)N1` (stereo not drawn) [TR-264, N-(5-(3,5-difluorobenzyl)-1H-indazol-3-yl)-4-(4-((2˜ (2,6-dioxopiperidin-3-yl)-1,3-dioxoisoindolin-5-yl)glycyl)piperazin-1-yl)benzamide] are 9.9 nM and greater than 80%.
Consider `O=C1CCC(N2C(=O)c3ccc(N4CC(CN5CCN(c6ccc(C(=O)Nc7n[nH]c8ccc(Cc9cc(F)cc(F)c9)cc78)cc6)CC5)C4)cc3C2=O)C(=O)N1` (stereo not drawn) [TR-265, N-(5˜ (3,5-difluorobenzyl)-1H-indazol-3-yl)-4-(4-((1-(2-(2,6-dioxopiperidin-3-yl)-1,3-dioxoisoindolin-5-yl)azetidin-3-yl)methyl)piperazin-1-yl)benzamide], for which the IC50 in the test with KM12 cells (setting [1]) was 13.3 nM. Also, the percent degradation of TPM3-TRKA protein at 0.01 µM at TPM3-TRKA fusion protein (setting [2]) is greater than 80%.
The like results for `O=C1CCC(N2C(=O)c3ccc(NCC(=O)N4CCN(c5ccc(C(=O)Nc6n[nH]c7ccc(Cc8cc(F)cc(F)c8)cc67)c(NCCF)c5)CC4)cc3C2=O)C(=O)N1` (stereo not drawn) [TR-266, N-(5-(3,5-difluorobenzyl)-1H-indazol-3-yl)-4-(4˜ ((2-(2,6-dioxopiperidin-3-yl)-1,3-dioxoisoindolin-5-yl)glycyl)piperazin-1-yl)-2-((2-fluoroethyl)amino)benzamide] were, in that order, 7.2 nM and greater than 80%.
The like results for `O=C1CCC(N2C(=O)c3ccc(N4CC(CN5CCN(c6ccc(C(=O)Nc7n[nH]c8ccc(Cc9cc(F)cc(F)c9)cc78)c(NCCF)c6)CC5)C4)cc3C2=O)C(=O)N1` (stereo not drawn) [TR-267, N-(5-(3,5-difluorobenzyl)-1H-indazol-3-yl)-4-(4-((1-(2-(2,6-dioxopiperidin-3-yl)-1,3-dioxoisoindolin-5-yl)azetidin-3-yl)methyl)piperazin-1-yl)-2-((2-fluoroethyl)amino)benzamide] were, in that order, 11.7 nM and greater than 80%.
Regarding `O=C1CCC(N2C(=O)c3ccc(NCCN4CCN(c5ccc(C(=O)Nc6n[nH]c7ccc(Cc8cc(F)cc(F)c8)cc67)c(NCCF)c5)CC4)cc3C2=O)C(=O)N1` (stereo not drawn) [TR-268, N-(5-(3,5-Difluorobenzyl)-1H-indazol-3-yl)-4-(4-(2-((2-(2,6-dioxopiperidin-3-yl)-1,3-dioxoisoindolin-5-yl)amino)ethyl)piperazin-1-yl)-2-((2-fluoroethyl)amino)benzamide], in the test with KM12 cells (setting [1]), the 50% inhibitory concentration (IC50) is 6.2 nM. For the same compound, on TPM3-TRKA fusion protein (setting [2]), the percent degradation of TPM3-TRKA protein at 0.01 µM is greater than 80%.
